Results: patent US20240174744A1, “METHODS OF TREATMENT USING PROTEIN BINDERS TO IRHOM2 EPITOPES” (SCIRHOM GMBH, priority 2021, published 2024)

System: LPS-induced release of TNFα from human macrophages from healthy donors
Assay: ELISA-based TNFα release assay, human macrophages from healthy donors
Format: cell-based
Conditions: Macrophage, recombinant murine antibodies, final concentration of 10 µg/ml, Batimastat 10 μM, LPS 5 ng/ml, 2 hours
Method: Complementary to Example 32 described above, ELISA-based TNFα release assays were performed to test the inhibitory effects of the antibodies on LPS-induced release of endogenous TNFα from human macrophages from healthy donors.
To obtain human macrophages, peripheral blood mononuclear cells (PBMCs) from 4 healthy donors were used. Cells from 5 ml human blood were resuspended in 20 ml of DMEM medium (Corning, USA) supplemented with 10% FCS (Atlanta Biological, USA) and Penicillin/Streptomycin (Corning, USA) (DMEM/FCS) and were then incubated on two 10 cm petri dishes (Thermo Fisher, USA) at 37° C., 5% CO2 for 3h. Non-adherent cells were subsequently removed and 6 ml of DMEM/FCS supplemented with 10 ng/ml human MCSF (Peprotech, USA) (DMEM/FCS/MCSF) was added per plate. Both plates were incubated at 37° C., 5% CO2 for 2 days, then 2 ml of DMEM/FCS/MCSF was added to each plate on day 2 and 4. On day 5, all medium was removed and attached cells were washed once with 5 ml PBS (Corning, USA). 2 ml of Accutase (Promocell, USA) solution was added to each plate and incubated at 37° C. for 15 min. 10 ml of DMEM/FCS was added to each plate and detached cells were collected in a 15 ml Falcon tube. Cells were subsequently pelleted in a tabletop centrifuge (Eppendorf, USA) at 1,500 rpm for 5 min. […] 10 μl from this cell suspension was manually counted in a hemocytometer (Thermo Fisher, USA). […]

CNC(=O)[C@H](Cc1ccccc1)NC(=O)[C@H](CC(C)C)[C@H](CSc1cccs1)C(=O)NO [Batimastat]
inhibition at 10 µM: 68.3%
